Laboratory results as given in article PMC9365994, “Small molecules to regulate the GH/IGF1 axis by inhibiting the growth hormone receptor synthesis” (Frontiers in Endocrinology, 2022).

Assays:
[1] = Liver weight, body weight and side effects in xenografted mice; format: in vivo
Method: (§1) BM001, BM002, and BM003 were used in mice xenografted with MM231 breast cancer cells that are GH-responsive both for growth and drug resistance ([42]–[45]). The cells were orthotopically grafted into the inguinal mammary gland, and drug treatments started when tumors reached a volume of >50 mm^3. We used a treatment regimen of 3 injections per week (1 and 5 mg/kg) during 3 weeks (9 mice/group) ( Figure 6 ). Animals were killed when tumor volume exceeded 150 mm^3 or mice presented lung metastasis upon bioluminescence imaging measurements. […] Drug withdrawal effects were not studied until now. […] We observed no adverse side effects neither on appetite and behavior ([46]). […] We next assessed if the identified drugs indeed target the GH/IGF1 pathway and consequently, if they result in a decrease in liver weight and IGF1 levels, as observed in GHR knockout mice and Laron patients ([47]).

IGF1 = experiment: Serum IGF1 levels in xenografted mice; format: in vivo
Method: as §1

[2] = Glucose and insulin levels in a dog experiment; format: in vivo; details: data not shown
[3] = tested on: Colo-205 human colon cancer line; experiment: Cell proliferation assay (CyQuant), Colo-205; format: cell-based
From the text: (§2) Based on these 2 compounds, Specs selected a new set of 109 structural analogues ( Supplementary Data 3 ). Twenty-one compounds tested positive in the primary screen protocol. […] ( Figures S12, S13 ). The 14 active drugs are depicted in Figure 4 . In the final test, the 5 best compounds (BM001-BM005) were screened for their […] effect on cancer cells. We used the triple-negative human breast cancer line, MDA-MM-231 (MM231) and the human colon cancer line Colo-205, and quantified DNA in vital cells ( Figure 5B ). Dose-response curves were made after 24, 48 & 72 h. The 5 drugs inhibited both cell lines relatively equal to the dose-response curves monitoring pGHR tails, pJak2, and pSTAT5 ( Figure S13 and Figure S14 ) with IC50 values varying from 30-200 nM ( Figure 5 ). […]
(§3) fos-GHRct phosphorylation (Fig. S12), a remarkable hit rate of […]. Next, we determined the dose-response effect (IC50) of these 21 new compounds on pY-levels of fos-GHRct. The compounds were divided in four categories: no dose-response effect (6), effect less than […]
(§4) plateaued at 200 units of relative fluorescence intensity. […]
(§5) protocol. […]
(§6) Next, we assessed the effect of the best 5 lead compounds (BM001-BM005) for the inhibition of cell proliferation/induction or cell death. […] With a standard green filter set the fluorescence from the nuclei is quantified in a multi-well plate spectrophotometer. […]

[4] = tested on: MDA-MM-231 (MM231) triple-negative human breast cancer line; experiment: Cell proliferation assay (CyQuant), MDA-MM-231; format: cell-based
From the text: as §2, §3, §4, §5, §6

Structure (SMILES)	Liver weight ([1]; 1 mg/kg) [mg]	Liver weight ([1]; 5 mg/kg) [mg]	reduction of liver weight ([1]; 3 injections per week, 3 weeks) [%]	total body weights ([1]; 3 weeks treatment)	liver weight (in words) ([1]; Figure 6E)	reduction of serum IGF1 levels (IGF1; 3 injections per week, 3 weeks) [%]	plasma IGF1 levels (in words) (IGF1; Figure 6D)	reduction of IGF1 (fold) (IGF1; measured at the end of the experiment)	glucose levels [2]	insulin levels [2]	effect on cell proliferation (in words) [3]	effect on cell proliferation (in words) [4]
Cc1nc(N)nc(N)c1/C=C/C1(c2ccc(C(F)(F)F)cc2)CC1 [BM001]	1041	1038	16	remained the same	dose-dependent reduction	73	dose-dependent reduction	four-fold	did neither affect	did neither affect		
N#CC[C@H](C1CCCC1)n1cc(-c2ncnc3[nH]ccc23)cn1 [Ruxolitinib, reference compound]											no effect	no effect
